Patent US20170349879A1, “METHOD FOR CULTURING NORMAL CELLS AND ODONTOMA CELLS CONTAINED IN ORAL TISSUE” (CHIBA UNIVERSITY, priority 2014, published 2017)

Key:
[1] = system: amylase; assay: Protein expression analysis of amylase by immunocytological fluorescent staining; type: cell-based, human; settings: salivary gland cells repeatedly subcultured in Rock inhibitor-containing medium; FIG. 3
Method: (i) Salivary gland cells cultured on glass slides were fixed by being treated for 10 minutes with 4% paraformaldehyde (WaKo). (ii) The fixed cells were washed three times with Tris-buffered saline (TBS: Sigma-Aldrich). (iii) The fixed cells were permeated with 0.5% Triton X-100 (WaKo) for 15 minutes. (iv) The fixed cells were reacted for 30 minutes with TBS containing 1% bovine serum albumin (Sigma-Aldrich). (v) The fixed cells were washed three times with TBS. (vi) A primary antibody (anti-goat amylase (Santa Cruz)) was mixed with TBS and reacted at a concentration of 1:200 at 4° C. for 16 hours. (vii) The cells were washed three times with TBS. (viii) Anti-goat Alexa Floor 647 (Millipore) was mixed with phosphate-buffered physiological saline and reacted at a concentration of 1:200 at room temperature for 1 hour. (ix) The cells were washed three times with TBS. (x) The cells were mounted with DAPI-containing mounting medium (DaKo). (xi) The cells were observed under a confocal microscope (FV10i-LIV: OLYMPUS).

[2] = system: salivary gland cells; assay: Analysis of cytomorphological changes by immunocytological fluorescent staining of the cytoskeleton (F-actin); type: cell-based, human; settings: salivary gland cells in Rock inhibitor-containing medium vs inhibitor-free medium; FIG. 4
Method: In this section, cytomorphological changes caused by the presence or absence of a Rock inhibitor were analyzed by immunocytological fluorescent staining of the cytoskeleton. Analytes were treated by the same experimental procedures as shown in (2.2) above. As an antibody, Acti-stain 670 fluorescent Phallodin (F-actin) (Cytoskeleton) was reacted at room temperature for 1 hour.

[3] = system: proliferating cell nuclear antigen (PCNA); assay: Western blotting of PCNA (proliferation) in salivary gland cells; type: cell-based, human; settings: salivary gland cells in Rock inhibitor-containing medium; relative to α-tubulin; FIG. 6A
Method: (§1) Primary cultured salivary gland cells were cultured in a medium containing a Rock inhibitor and analyzed for their proliferation by Western blotting of proliferating cell nuclear antigen (PCNA: Santa Cruz) and for their apoptosis by Western blotting of caspase-3 (CST). For analysis of their immortalization, the expression of telomerase reverse transcriptase (TERT) was analyzed by quantitative RT-PCR assay.
The protein levels of PCNA and caspase-3 were measured by Western blotting. In addition, α-tubulin was used as an endogenous control.
(i) A protein extract was electrophoresed on a 4% to 12% polyacrylamide gel (Invitrogen).
(ii) The proteins were transferred onto a nitrocellulose membrane (Invitrogen).
(iii) The membrane was washed with Tris-buffered saline containing 0.1% Tween-20 (WaKo) (TBST), and then blocked with Blocking One (Nacalai Tesque, Inc., Japan) for 30 minutes. […]
(vi) The membrane was reacted at room temperature for 1 hour with horseradish peroxidase (HRP)-conjugated secondary antibody (Promega) and then treated with Super Signal West Pico Chemiluminescent substrate (Thermo) to develop signals for visualization purposes. The intensity of signals was quantified with a CS analyzer (ATTO) and expressed as a relative value in comparison with the protein level of α-tubulin measured as a control.

[4] = system: telomerase reverse transcriptase (TERT); assay: Quantitative RT-PCR of TERT (immortalization) in salivary gland cells; type: cell-based, human; settings: salivary gland cells in Rock inhibitor-containing medium; FIG. 6B
Method: as §1, with “assay. Quantitative RT-PCR of TERT was conducted in the same manner as shown in (2.1) above. The primers used are as shown below. The universal probe used was #19.” for “assay.”

[5] = system: B6C3F1/Crlj mice; assay: Toxicity in mice administered intraperitoneally with a Rock inhibitor; type: in vivo; settings: 10 mg/kg/day intraperitoneal, once a day for 14 days
Method: 4.3 Histopathological Analysis of Organ Toxicity in Mice Administered Intraperitoneally with a Rock Inhibitor Animal used: B6C3F1/Crlj mice (CLEA Japan, Inc., Japan) n=12 for each group (male: 6, female: 6), n=4 for the control group (male: 2, female: 2) Drug: Y-27632 Dose: 10 mg/kg/day (0.25 mg/day for 25 g body weight) Y-27632 was dissolved in PBS and intraperitoneally administered. The control group was administered with an equal volume of PBS. Administration period: administered once a day for successive 14 days. Half of the mice in each group were monitored for follow-up purposes for 14 days after administration. (i) Groups receiving a Rock inhibitor (RI+): n=12 (male: 6, female: 6) A. Group subjected to blood collection and autopsy at the time of the completion of administration (at 14 days after the initiation of administration). n=6 (male: 3, female: 3) B. Group subjected to blood collection and autopsy at the time of the completion of administration (at 28 days after the initiation of administration). n=6 (male: 3, female: 3) The mice were visually observed for their general condition once a day. The mice were measured daily for their body weight and feed/water intake. Hematological tests were performed on each mouse before administration and after administration (on the 14th day). * In each group, 3 male and 3 female mice were subjected to blood collection and autopsy on the 14th day of administration. […] These mice were subjected to blood examination and autopsy on the 28th day after the initiation of administration. Blood counting: red blood cell count, white blood cell count, platelet count, hematocrit value, red blood cell fraction. Biochemical parameters: TP, ALB, CRE, Na, K, GOT, GPT, T-CHO, Glu On the […], 3 male and 3 female mice from each group were subjected to autopsy. The remaining 3 male and 3 female mice were subjected to autopsy on the 28th day after being monitored for follow-up purposes. […]

Q: Which “protein expression of amylase” value [1] does the source give for `CC(N)[C@H]1CC[C@H](C(=O)Nc2ccncc2)CC1` (stereo partly drawn) [Rock inhibitor, (R)-(+)-trans-N-(4-pyridyl)-4-(1-aminoethyl)-cyclohexanecarboxamide] here?
A: significantly high

Q: And the “cytoskeleton (F-actin) morphology” value [2]?
A: honeycomb-like skeleton

Q: What about the PCNA expression [3] of the same molecule?
A: no difference was observed

Q: What about the TERT expression [4] of the same molecule?
A: no difference was also observed

Q: And the hematological tests ([5]; FIG. 7)?
A: No abnormal findings were observed

Q: What about the “time course of body weight changes” value ([5]; FIG. 8) of the same molecule?
A: No abnormal findings were observed

Q: What about the “histopathological examination of organs” value ([5]; HE staining, FIG. 9) of the same molecule?
A: No abnormal findings were observed
